Values joined by “and” are separate entries in the source; they are usually repeats but may differ in a detail not shown here. Identical values can stand only once.
Tested on: cord blood-derived CD56^+ NK cells
Test: Cord blood-derived NK cell culture on OP9 native or OP9-DL1 stromal cells with IL-15 with or without IL-21; FACS for CD57 and SYK
Format: cell-based, human
Description: OP9 stromal cells transduced with either the empty MigR1 retroviral vector (OP9 native) or with the MigR1 retroviral vector containing the Delta-like 1 gene (OP9-DL1) (Schmitt et al. Immunity. 2002; 17(6):749-756) were cultured in MEMα media+20% fetal bovine serum (FBS) at a concentration of 4×10^5 cells/well in 24-well plates for two days to allow for cell adherence. Plates were then irradiated with 2,000 cGy to stop cell proliferation.
Mononuclear cells were isolated from whole cord blood by density gradient centrifugation. T cells and B cells were depleted by positive magnetic selection using anti-CD3 and anti-CD19 microbeads, respectively. CD3/CD19-depleted cells were then added to irradiated OP9 cells at a concentration of 5×10^5 cells/well and cultured for 14 days in RPMI media+10% FBS supplemented with either 1 ng/mL IL-15 or 10 ng/mL IL-15 with or without 50 ng/mL IL-21.
Cord blood-derived NK cells were analyzed before culture and after 7 and 14 days of culture by fluorescence activated cell sorting (FACS) using the following extracellular and intracellular antibodies: BV785-conjugated anti-CD3 (BioLegend, San Diego, CA), PE-Cy7-conjugated anti-CD56 (BioLegend, San Diego, CA), BV605-conjugated anti-CD57 (BioLegend, San Diego, CA), APC-conjugated SYK (eBioscience, San Diego, CA), and PE-conjugated anti-PLZF (BD Biosciences, San Jose, CA).
The Notch signaling pathway plays an essential role in effector CD8^+ T cell differentiation and controls the acquisition of effector function (Backer et al. Nat Immunol. 2014; 15(12):1143-1151). To determine if Notch signaling could play a role in driving the differentiation and expansion of terminally differentiated and adaptive NK cell subsets, CD3/CD19-depleted mononuclear cells were cultured from cord blood on native OP9 stromal cells or OP9 stromal cells stably transduced with the Notch ligand DL1 in the presence of low-dose (1 ng/mL) IL-15 or high-dose (10 ng/mL) IL-15 with or without IL-21 (50 ng/mL). Cells were harvested at days 7 and 14, and CD56^+ NK cells were analyzed by fluorescence activated cell sorting (FACS) for expression of CD57 and SYK. Prior to culture, an average of 2.13%±0.44 of CD56^+ NK cells expressed CD57.

[1] = OP9-DL1, high-dose (10 ng/mL) IL-15, day 7
[2] = OP9-DL1, high-dose (10 ng/mL) IL-15, day 14
[3] = OP9-DL1, low-dose (1 ng/mL) IL-15, day 7
[4] = OP9-DL1, low-dose (1 ng/mL) IL-15, day 14
[5] = OP9 native, high-dose (10 ng/mL) IL-15, day 7
[6] = OP9 native, high-dose (10 ng/mL) IL-15, day 14
[7] = OP9 native, low-dose (1 ng/mL) IL-15, day 7
[8] = OP9 native, low-dose (1 ng/mL) IL-15, day 14

With “IL-15: cytokine in culture medium, low-dose 1 ng/mL or high-dose 10 ng/mL” the “percentage of CD56^+ NK cells expressing CD57” value [1] was 1.30%±0.31, the “percentage of CD56^+ NK cells lacking SYK” value [1] was 0.34%±0.04 and 0.67%±0.10 and the “percentage of CD56^+ NK cells expressing CD57” value [2] was 0.86%±0.44. For the same substance, the “percentage of CD56^+ NK cells lacking SYK” value [2] was 0.43%±0.15, the “percentage of CD56^+ NK cells expressing CD57” value [3] was 0.91%±0.34 and the “percentage of CD56^+ NK cells lacking SYK” value [3] was 0.25%±0.06. The “percentage of CD56^+ NK cells expressing CD57” value [4] was 0.93%±0.40, the “percentage of CD56^+ NK cells lacking SYK” value [4] was 0.17%±0.08 and the “percentage of CD56^+ NK cells expressing CD57” value [5] was 0.70%±0.23. For the same substance, the “percentage of CD56^+ NK cells lacking SYK” value [5] was 0.21%±0.05, the “percentage of CD56^+ NK cells expressing CD57” value [6] was 0.22%±0.10 and the “percentage of CD56^+ NK cells lacking SYK” value [6] was 0.43%±0.15. The “percentage of CD56^+ NK cells expressing CD57” value [7] was 0.59%±0.19, the “percentage of CD56^+ NK cells lacking SYK” value [7] was 0.18%±0.06 and the “percentage of CD56^+ NK cells expressing CD57” value [8] was 0.24%±0.11. For the same substance, the “percentage of CD56^+ NK cells lacking SYK” value [8] was 0.07%±0.03.

From patent US12054744B2, “NK cells exhibiting an adaptive phenotype and methods for preparing and for using” (Regents of the University of Minnesota, priority 2015, dated 2024)
